# Results as given in PubChem BioAssay (NCI).
# Several values for one entry are separate records, joined by “and”; a condition that tells them apart may be missing. Equal entries are not always repeated.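 Step 1: Grow cells in 96-well plates. Step 2: Expose to compound for 48 hours at 5 concentrations. Step 3: Interpolate endpoints linearly; if unreached, use highest concentration. GI50: concentration for 50% inhibition of growth. TGI is the concentration that stops growth completely.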
# How the values were obtained:
# Test in all cases: NCI-60 cell line screen, 48 h
# NCI/ADR-RES ovarian = tested on: NCI/ADR-RES ovarian
# A549 NSCLC = tested on: A549 NSCLC
# OVCAR-5 ovarian = tested on: OVCAR-5 ovarian
# SNB-75 CNS = tested on: SNB-75 CNS
# HL-60(TB) leukemia = tested on: HL-60(TB) leukemia
# CCRF-CEM leukemia = tested on: CCRF-CEM leukemia
# MDA-MB-231 breast = tested on: MDA-MB-231 breast
# COLO 205 colon = tested on: COLO 205 colon
# SK-OV-3 ovarian = tested on: SK-OV-3 ovarian
# OVCAR-8 ovarian = tested on: OVCAR-8 ovarian
# LXFL 529 NSCLC = tested on: LXFL 529 NSCLC
SMILES,TGI (NCI/ADR-RES ovarian),TGI (A549 NSCLC),TGI (OVCAR-5 ovarian),TGI (SNB-75 CNS),TGI (HL-60(TB) leukemia),TGI (CCRF-CEM leukemia),TGI (MDA-MB-231 breast),TGI (COLO 205 colon),TGI (SK-OV-3 ovarian),TGI (OVCAR-8 ovarian),GI50 (NCI/ADR-RES ovarian),GI50 (OVCAR-5 ovarian),GI50 (CCRF-CEM leukemia),GI50 (MDA-MB-231 breast),GI50 (SK-OV-3 ovarian),GI50 (OVCAR-8 ovarian),TGI (LXFL 529 NSCLC),GI50 (LXFL 529 NSCLC)
O=c1[nH]nc(Cc2ccc(Cl)cc2)n1/N=C/c1cccs1,> 100 µM,> 100 µM,> 100 µM,49.9 µM,> 100 µM,> 100 µM,49.7 µM,> 100 µM,> 100 µM,> 100 µM,,,,,,,,
N#Cc1cc2c(cc1Cl)Sc1nnc(Nc3ccccc3)n1S2(=O)=O,3.43 µM,16 µM,3.8 µM,10.7 µM,13.6 µM,> 24 µM,4.7 µM,4.75 µM,17.3 µM,4.41 µM,,,,,,,,
Cc1ccnc2c1C(=O)C1=C(OC(C)(C)CC1O)C2=O (stereo unspecified),8.93 µM,21.6 µM,20.6 µM,0.297 µM,> 24 µM,44.5 µM,15.4 µM,6.52 µM,27.2 µM,11.8 µM,,,,,,,,
Cc1ccc2c(c1)CC1(Cc3cccc(C)c3C1=O)C2=O (stereo unspecified),> 100 µM,> 100 µM,> 100 µM,> 100 µM,> 100 µM,> 100 µM,> 100 µM,> 100 µM,> 100 µM,> 100 µM,,,,,,,,
COCCn1cnc2c(Cl)nc(Nc3ccccc3)nc21,> 100 µM,> 100 µM,> 100 µM,> 100 µM,63.3 µM,46.9 µM,75.6 µM,> 100 µM,> 100 µM,54.9 µM,,,,,,,,
O=P1(Cc2ccccc2)N(Cc2ccccc2)[C@@H]2CCCC[C@H]2N1Cc1ccccc1,23 µM,19.7 µM,24.7 µM,21.1 µM,19.8 µM,32.3 µM,24.9 µM,18.7 µM,28 µM,23.8 µM,,,,,,,,
CC(=O)c1ccc2c(c1)C(=O)c1sc(C(C)=O)cc1C2=O,2.56 µM and 1.93 µM,9.41 µM and 7.41 µM,2.36 µM and 3.92 µM,6.27 µM and 4.85 µM,50 µM,,3.75 µM and 7.75 µM,7.94 µM,14.3 µM and 21.4 µM,1.69 µM and 2.67 µM,0.326 µM,1.87 µM,0.182 µM,0.521 µM,5.66 µM,0.587 µM,,
COCn1cnc2c(=O)nc(SC)n(-c3ccccc3)c21,> 100 µM,> 100 µM,> 100 µM,> 100 µM,> 100 µM,> 100 µM,> 100 µM,> 100 µM,> 100 µM,> 100 µM,,,,,,,,
COc1ccc(/C=N/N=C(\N)NO)c(OC)c1C,,44.9 µM,7.69 µM,,,> 100 µM,,30.7 µM,> 100 µM,> 100 µM,,,,,,,> 100 µM,
O=c1[nH]c2nc3ccccc3c(=O)n2/c1=C/c1cccs1,> 100 µM,> 100 µM,> 100 µM,> 100 µM,> 100 µM,> 100 µM,> 100 µM,> 100 µM,> 100 µM,> 100 µM,,,,,,,,
Oc1c(Br)ccc2cccnc12,6.38 µM,> 100 µM,> 100 µM,> 100 µM,1.32 µM,3.98 µM,24.7 µM,> 33.8 µM,61.6 µM,> 100 µM,,,,,,,,
NCCCNCCCCN1CCOC1=O,> 100 µM,> 100 µM,> 100 µM,> 100 µM,> 100 µM,> 100 µM,> 100 µM,> 100 µM,> 100 µM,> 100 µM,,,,,,,,
NCCCN(CCCN)CCc1cn(C(=O)c2ccccc2)cn1,53.9 µM,26.7 µM,33.4 µM,17.7 µM,10.8 µM,14.8 µM,28.8 µM,9.58 µM,27.5 µM,56.3 µM,,,,,,,,
CC(NC(=O)Cc1ccccc1)NC(=O)C(C)C(=O)NCc1ccccc1 (stereo unspecified),> 100 µM,> 100 µM,> 100 µM,> 100 µM,> 100 µM,> 100 µM,> 100 µM,> 100 µM,> 100 µM,> 100 µM,,,,,,,,
CCCC(=O)[O-].CCCC(=O)[O-].NCCN.NCCN.[Co+3].[O-][Cl+3]([O-])([O-])[O-],,> 100 µM,> 100 µM,> 100 µM,,> 100 µM,,> 100 µM,> 100 µM,> 100 µM,,,,,,,> 100 µM,> 100 µM
O=C1OCC2OC(=O)c3cc(O)c(O)c(O)c3-c3c(O)c(O)c(O)c4c3C(=O)OC(C2OC(=O)c2cc(O)c(O)c(O)c2-c2c1cc(O)c(O)c2O)C1OC(=O)C2C4=C(O)C(=O)C23Oc2cc(O)c4c(c2[C@H]13)O[C@H](c1ccc(O)c(O)c1)[C@@H](O)C4 (stereo partly specified),73.3 µM,> 100 µM,36.2 µM,76 µM,51.8 µM,> 100 µM,43.5 µM,54.9 µM,> 100 µM,58.5 µM,,,,,,,,
